Measurements reported in US20220264878A1, “HERBICIDAL COMPOSITION CONTAINING R-TYPE PYRIDYLOXY CARBOXYLIC ACID DERIVATIVE AND USE THEREOF” (Qingdao Kingagroot Chemical Compound Co., Ltd., priority 2019, published 2022).
Where two headings read alike, the source gives them in different places.

Experiments:
Assay in all cases: Post-emergence foliage spray, pot culture, fresh weight inhibition (Tables 1-48, 51-98, 101-148; 24 days)
Assay type in all cases: in vivo
[1] = tested on: Echinochloa crusgalli var. zelayensis; conditions: Echinochloa crus-galli, foliar, 576 h, foliage spray, 24 days, read-out: Control effect (%) of B applied alone in corresponding dose; for pest or weed control at 3.75 g/ha: B 3.75 g a.i./ha; for pest or weed control at 7.5 g/ha: B 7.5 g a.i./ha; for pest or weed control at 15 g/ha: B 15 g a.i./ha; for pest or weed control at 30 g/ha: B 30 g a.i./ha
Procedure: (§1) The above weeds were cultivated by a pot culture method. […] Full and uniform weed seeds were selected, soaked in warm water at 25° C. for 6 hours, and germinated in a 28° C. biochemical incubator (darkness). The weed seeds that had just germinatedwere evenly placed on the surface of the soil and then covered with 0.5-1 cm soil according to the sizes of seeds.
(§2) The technical materials were all dissolved in acetone, and diluted with an aqueous solution containing 0.1% emulsifier Tween-80. The dilution is performed as required.
(§3) A ratio of the active ingredient A to the active ingredient B and amounts thereof in each group depends on the characteristics and toxicity of the two agents, as well as the main application purpose of a corresponding formulation. Based on the pre-tests in this study, the dosage of the active ingredient A and B applied alone and in combination were shown in the tables. Water containing the solvent and emulsifier same with the above groups but free of the agents was used as a blank control.
(§4) In the stage of weeds with 3˜4 leaves, the weeds were thinned out to maintain 15 weeds per pot and 45 weeds for each treatment, then continued to be cultured to 5˜6 leaves stage of grassy weeds, 6˜7 leaves stage of broadleaf weeds, and treated.
(§5) The well-cultured weeds were evenly placed on a platform with an area of 0.5 m^2, and a solution of agents was sprayed on the stems and leaves thereof by the 3WP-2000-type walking spray tower at a dosage of 450 kg/ha and at a spray pressure of 0.3 MPa. After all the solution was sprayed, the valve was closed. After 30 seconds, the door of the spray tower was opened, and the nutritional bowl was taken out. Then the valve was opened, and the spray tube was cleaned by spraying 50 ml of water.
(§6) A pot-culture method was employed. For the cultivation of weeds, please refer to the Section 1.1), and “Pesticide guidelines for laboratory bioactivity tests—herbicides”. As to a method for applying agents, please refer to the section 2.3.2), that is, a foliage treatment was employed. After the treatment, the weeds were routinely cultured in a greenhouse.
(§7) A method for investigating absolute number was employed, wherein whole seedlings of survival weeds were cut off with a blade along the soil surface, and the fresh weight of the weeds was weighed with an analytical balance. For dead weeds, the fresh weight thereof was zero.
(§8) Wherein, in the formula, X represented the fresh weight inhibition rate of the active ingredient A in a dosage of P, and Y represented the fresh weight inhibition rate of the active ingredient B in a dosage of Q.

Echinochloa oryzoides = conditions: Echinochloa oryzoides, 576 h, read-out: Control effect (%) of B applied alone in corresponding dose; for pest or weed control at 3.75 g/ha: 3.75 g a.i./ha; for pest or weed control at 7.5 g/ha: 7.5 g a.i./ha; for pest or weed control at 15 g/ha: 15 g a.i./ha; for pest or weed control at 30 g/ha: 30 g a.i./ha
Procedure: as §1, §2, §3, §4, §5, §6, §7, §8

Echinochloa caudate = conditions: Echinochloa, 576 h, read-out: Control effect (%) of B applied alone in corresponding dose
Procedure: as §1, §2, §3, §4, §5, §6, §7, §8

Compound: COCc1cnc(C2=NC(C)(C(C)C)C(=O)N2)c(C(=O)O)c1 (stereo not drawn) [imazamox]
- pest or weed control at 3.75 g/ha [1]: 6.9%
- pest or weed control at 7.5 g/ha [1]: 14.2%
- pest or weed control at 15 g/ha [1]: 25.1%
- pest or weed control at 30 g/ha [1]: 54.8%
- pest or weed control at 3.75 g/ha (Echinochloa oryzoides; Table 109): 4%
- pest or weed control at 7.5 g/ha (Echinochloa oryzoides; Table 109): 12.6%
- pest or weed control at 15 g/ha (Echinochloa oryzoides; Table 109): 27.6%
- pest or weed control at 30 g/ha (Echinochloa oryzoides; Table 109): 54.4%
- pest or weed control at 3.75 g/ha (Echinochloa caudate; imazamox 3.75 g a.i./ha): 7.6%
- pest or weed control at 7.5 g/ha (Echinochloa caudate; imazamox 7.5 g a.i./ha): 16.5%
- pest or weed control at 15 g/ha (Echinochloa caudate; imazamox 15 g a.i./ha): 24.8%
- pest or weed control at 30 g/ha (Echinochloa caudate; imazamox 30 g a.i./ha): 53.8%

Compound: Cc1cnc(C2=NC(=O)C(C)(C(C)C)N2)c(C(=O)O)c1 (stereo not drawn) [imazapic]
- pest or weed control at 9.375 g/ha ([1]; B 9.375 g a.i./ha): 1.2%
- pest or weed control at 18.75 g/ha ([1]; B 18.75 g a.i./ha): 18.6%
- pest or weed control at 37.5 g/ha ([1]; B 37.5 g a.i./ha): 26.9%
- pest or weed control at 75 g/ha ([1]; B 75 g a.i./ha): 57%
- pest or weed control at 9.375 g/ha (Echinochloa oryzoides; Table 108, 9.375 g a.i./ha): 4%
- pest or weed control at 18.75 g/ha (Echinochloa oryzoides; Table 108, 18.75 g a.i./ha): 21.3%
- pest or weed control at 37.5 g/ha (Echinochloa oryzoides; Table 108, 37.5 g a.i./ha): 30.4%
- pest or weed control at 75 g/ha (Echinochloa oryzoides; Table 108, 75 g a.i./ha): 59.7%
- pest or weed control at 9.375 g/ha (Echinochloa caudate; imazapic 9.375 g a.i./ha): 6.8%
- pest or weed control at 18.75 g/ha (Echinochloa caudate; imazapic 18.75 g a.i./ha): 21.5%
- pest or weed control at 37.5 g/ha (Echinochloa caudate; imazapic 37.5 g a.i./ha): 28.6%
- pest or weed control at 75 g/ha (Echinochloa caudate; imazapic 75 g a.i./ha): 55.6%

Compound: CCc1cnc(C2=NC(C)(C(C)C)C(=O)N2)c(C(=O)O)c1 (stereo not drawn) [imazethapyr]
- pest or weed control at 7.5 g/ha [1]: 3.2%
- pest or weed control at 15 g/ha [1]: 19.8%
- pest or weed control at 30 g/ha [1]: 31.2%
- pest or weed control at 60 g/ha ([1]; B 60 g a.i./ha): 59.2%
- pest or weed control at 7.5 g/ha (Echinochloa oryzoides; Table 107): 6.7%
- pest or weed control at 15 g/ha (Echinochloa oryzoides; Table 107): 17.8%
- pest or weed control at 30 g/ha (Echinochloa oryzoides; Table 107): 34.6%
- pest or weed control at 60 g/ha (Echinochloa oryzoides; Table 107, 60 g a.i./ha): 58.2%
- pest or weed control at 7.5 g/ha (Echinochloa caudate; imazethapyr 7.5 g a.i./ha): 4.2%
- pest or weed control at 15 g/ha (Echinochloa caudate; imazethapyr 15 g a.i./ha): 18.1%
- pest or weed control at 30 g/ha (Echinochloa caudate; imazethapyr 30 g a.i./ha): 34.8%
- pest or weed control at 60 g/ha (Echinochloa caudate; imazethapyr 60 g a.i./ha): 55.6%

Compound: COc1cc(OC)nc(NC(=O)NS(=O)(=O)c2ncccc2C(=O)N(C)C)n1 [nicosulfuron]
- pest or weed control at 3.75 g/ha [1]: 7.3%
- pest or weed control at 7.5 g/ha [1]: 15.4%
- pest or weed control at 15 g/ha [1]: 39.3%
- pest or weed control at 30 g/ha [1]: 58.7%
- pest or weed control at 3.75 g/ha (Echinochloa oryzoides; Table 104): 9.9%
- pest or weed control at 7.5 g/ha (Echinochloa oryzoides; Table 104): 18.2%
- pest or weed control at 15 g/ha (Echinochloa oryzoides; Table 104): 40.5%
- pest or weed control at 30 g/ha (Echinochloa oryzoides; Table 104): 62.4%
- pest or weed control at 3.75 g/ha (Echinochloa caudate; nicosulfuron 3.75 g a.i./ha): 3.8%
- pest or weed control at 7.5 g/ha (Echinochloa caudate; nicosulfuron 7.5 g a.i./ha): 14.3%
- pest or weed control at 15 g/ha (Echinochloa caudate; nicosulfuron 15 g a.i./ha): 40.2%
- pest or weed control at 30 g/ha (Echinochloa caudate; nicosulfuron 30 g a.i./ha): 58.5%

Compound: COc1cnc(OC)n2nc(NS(=O)(=O)c3c(OCC(F)F)cccc3C(F)(F)F)nc12 [penoxsulam]
- pest or weed control at 1.875 g/ha ([1]; B 1.875 g a.i./ha): 2.4%
- pest or weed control at 3.75 g/ha [1]: 10.9%
- pest or weed control at 7.5 g/ha [1]: 48.8%
- pest or weed control at 15 g/ha [1]: 70.1%
- pest or weed control at 1.875 g/ha (Echinochloa oryzoides; Table 101, 1.875 g a.i./ha): 4.7%
- pest or weed control at 3.75 g/ha (Echinochloa oryzoides; Table 101): 13.8%
- pest or weed control at 7.5 g/ha (Echinochloa oryzoides; Table 101): 47.9%
- pest or weed control at 15 g/ha (Echinochloa oryzoides; Table 101): 68.4%
- pest or weed control at 1.875 g/ha (Echinochloa caudate; penoxsulam 1.875 g a.i./ha): 3.8%
- pest or weed control at 3.75 g/ha (Echinochloa caudate; penoxsulam 3.75 g a.i./ha): 15.6%
- pest or weed control at 7.5 g/ha (Echinochloa caudate; penoxsulam 7.5 g a.i./ha): 46.5%
- pest or weed control at 15 g/ha (Echinochloa caudate; penoxsulam 15 g a.i./ha): 69.4%
